biological target: T1, hT1R1/hT1R3 umami receptor (Homo sapiens, UniProt Q7RTX0+Q7RTX1); assay: In vitro hT1R1/hT1R3 umami taste receptor activation assay (FLIPR, dose response); format: cell-based; conditions: Table A, Umami Amides; read-out: Umami EC50
T1 construct: expressed in transfected cells; host or cells: HEK293 derivative stably expressing Gα15, clone I-17, expression induced with mifepristone
T1 sequence (Q7RTX1 21-841): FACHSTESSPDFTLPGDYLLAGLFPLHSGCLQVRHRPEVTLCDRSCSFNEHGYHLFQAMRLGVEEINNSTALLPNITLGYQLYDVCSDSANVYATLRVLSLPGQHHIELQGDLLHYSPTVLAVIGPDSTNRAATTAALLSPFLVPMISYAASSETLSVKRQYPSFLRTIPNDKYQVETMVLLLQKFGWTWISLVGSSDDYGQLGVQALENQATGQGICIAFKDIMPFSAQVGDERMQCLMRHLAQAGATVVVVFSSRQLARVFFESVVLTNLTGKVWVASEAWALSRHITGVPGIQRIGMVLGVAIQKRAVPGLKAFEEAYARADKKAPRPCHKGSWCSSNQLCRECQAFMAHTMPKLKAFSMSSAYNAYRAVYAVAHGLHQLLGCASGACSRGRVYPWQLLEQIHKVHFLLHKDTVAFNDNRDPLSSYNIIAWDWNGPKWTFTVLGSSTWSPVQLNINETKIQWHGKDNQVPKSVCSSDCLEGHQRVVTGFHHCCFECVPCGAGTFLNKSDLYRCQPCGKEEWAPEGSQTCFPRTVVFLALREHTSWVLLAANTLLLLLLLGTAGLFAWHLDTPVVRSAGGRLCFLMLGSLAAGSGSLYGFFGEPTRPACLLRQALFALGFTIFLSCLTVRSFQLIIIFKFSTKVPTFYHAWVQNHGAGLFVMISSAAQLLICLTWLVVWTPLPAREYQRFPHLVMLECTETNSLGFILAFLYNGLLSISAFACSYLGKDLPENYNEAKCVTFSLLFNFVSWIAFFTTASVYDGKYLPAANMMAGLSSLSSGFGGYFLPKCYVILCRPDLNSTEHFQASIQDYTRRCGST
T1 sequence (Q7RTX0 21-852): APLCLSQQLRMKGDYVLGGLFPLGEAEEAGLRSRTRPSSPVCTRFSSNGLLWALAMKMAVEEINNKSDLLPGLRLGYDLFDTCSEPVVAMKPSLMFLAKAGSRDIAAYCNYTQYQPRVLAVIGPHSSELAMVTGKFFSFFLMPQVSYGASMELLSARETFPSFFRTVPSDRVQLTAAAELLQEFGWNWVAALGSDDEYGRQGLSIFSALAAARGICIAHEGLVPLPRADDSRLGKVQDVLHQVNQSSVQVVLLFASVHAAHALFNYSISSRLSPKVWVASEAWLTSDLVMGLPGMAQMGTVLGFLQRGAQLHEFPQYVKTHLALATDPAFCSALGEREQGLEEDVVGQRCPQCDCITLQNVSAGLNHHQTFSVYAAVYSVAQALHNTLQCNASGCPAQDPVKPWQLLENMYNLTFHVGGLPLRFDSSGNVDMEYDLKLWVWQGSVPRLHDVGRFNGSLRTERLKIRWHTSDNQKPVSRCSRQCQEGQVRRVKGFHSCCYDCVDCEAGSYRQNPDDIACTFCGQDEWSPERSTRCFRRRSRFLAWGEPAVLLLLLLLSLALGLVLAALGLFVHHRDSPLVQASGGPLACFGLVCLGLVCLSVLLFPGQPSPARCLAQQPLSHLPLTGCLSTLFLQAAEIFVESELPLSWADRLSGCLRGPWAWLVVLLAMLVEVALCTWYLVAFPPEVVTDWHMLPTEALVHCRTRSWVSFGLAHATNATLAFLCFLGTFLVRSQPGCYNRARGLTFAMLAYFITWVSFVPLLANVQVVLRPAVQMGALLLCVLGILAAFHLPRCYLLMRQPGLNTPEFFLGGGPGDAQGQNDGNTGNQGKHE

Structure (SMILES) | EC50
CCCC(COC)NC(=O)c1cc2cc(OC)ccc2o1 (centres unmarked) [Example A19, 5-methoxy-N-(1-methoxypentan-2-yl)benzofuran-2-carboxamide] | 1300 nM
CCCC(CC(C)C)NC(=O)c1cc2cc(C)ccc2o1 (centres unmarked) [Example A20, 5-methyl-N-(2-methylheptan-4-yl)benzofuran-2-carboxamide] | 1320 nM
CCC(CC)NC(=O)c1cc2ccccc2o1 [Example A21, N-(pentan-3-yl)benzofuran-2-carboxamide] | 1520 nM
CCCC(CCC)NC(=O)c1ccc2ncsc2c1 [Example A22, Benzothiazole-6-carboxylic acid (1-propyl-butyl)-amide] | 1580 nM
CCCC(CC(C)C)NC(=O)c1ccc2oc(C)nc2c1 (centres unmarked) [Example A23, 2-methyl-N-(2-methylheptan-4-yl)benzo[d]oxazole-5-carboxamide] | 380 nM
CCCC(CC(C)C)NC(=O)c1ccc2nc(C)oc2c1 (centres unmarked) [Example A24, 2-methyl-N-(2-methylheptan-4-yl)benzo[d]oxazole-6-carboxamide] | 1120 nM
CCCC(NC(=O)c1ccc2nc(C)oc2c1)C(C)C (centres unmarked) [Example A26, 2-methyl-N-(2-methylhexan-3-yl)benzo[d]oxazole-6-carboxamide] | 1600 nM
CCCC(CCC)NC(=O)c1ccc2nc(CC)oc2c1 [Example A27, 2-ethyl-N-(heptan-4-yl)benzo[d]oxazole-6-carboxamide] | 1610 nM
COC(=O)[C@@H](CC(C)C)NC(=O)c1ccc2oc(C)nc2c1 [Example A28, (R)-4-Methyl-2-[(2-methyl-benzooxazole-5-carbonyl)-amino]-pentanoic acid methyl ester] | 1690 nM
CCCC(CCC)NC(=O)c1ccc2ncoc2c1 [Example A29, N-(heptan-4-yl)benzo[d]oxazole-6-carboxamide] | 1910 nM
CCCC(CCC)NC(=O)c1ccc(Br)o1 [Example A30, 5-bromo-N-(heptan-4-yl)furan-2-carboxamide] | 490 nM
CCCC(CCC)NC(=O)c1cc(C)c(C)o1 [Example A31, N-(heptan-4-yl)-4,5-dimethylfuran-2-carboxamide] | 620 nM
Cc1ccoc1C(=O)NC1CCCC(C)C1C (centres unmarked) [Example A32, N-(2,3-dimethylcyclohexyl)-3-methylfuran-2-carboxamide] | 1150 nM
Cc1cc(C(=O)NC2CCCCC2C)oc1C (centres unmarked) [Example A33, 4,5-dimethyl-N-(2-methylcyclohexyl)furan-2-carboxamide] | 1330 nM
COC(=O)[C@@H](CC(C)C)NC(=O)c1cc2ccccc2[nH]1 [Example A34, (R)-methyl 2-(1H-indole-2-carboxamido)-4-methylpentanoate] | 530 nM
CCCC(CCC)NC(=O)c1ccc2cc[nH]c2c1 [Example A35, N-(heptan-4-yl)-1H-indole-6-carboxamide] | 820 nM
COC(=O)[C@@H](CC(C)C)NC(=O)c1ccc2[nH]ccc2c1 [Example A36, (R)-methyl 2-(1H-indole-5-carboxamido)-4-methylpentanoate] | 1010 nM
COC(=O)[C@@H](CC(C)C)NC(=O)c1ccc2ncccc2c1 [Example A37, (R)-methyl 4-methyl-2-(quinoline-6-carboxamido)pentanoate] | 1500 nM
CCCC(CCC)NC(=O)c1ccc(C)s1 [Example A38, 5-Methyl-thiophene-2-carboxylic acid (1-propyl-butyl)-amide] | 1220 nM
Cc1ccc(C(=O)NC2CCCc3ccccc32)s1 (centres unmarked) [Example A39, 5-Methyl-thiophene-2-carboxylic acid (1,2,3,4-tetrahydro-naphthalen-1-yl) amide] | 1310 nM
COC(=O)[C@@H](CC(C)C)NC(=O)c1ccc2ccccc2c1 [Example A40, (R)-methyl 2-(2-naphthamido)-4-methylpentanoate] | 370 nM

Structure (SMILES) | EC50
CCCCC(CCCC)NC(=O)c1ccc2c(c1)OCO2 [Example A41, N-(nonan-5-yl)benzo[d][1,3]dioxole-5-carboxamide] | 700 nM
CC[C@@H](C)[C@@H](NC(=O)c1ccc2c(c1)OCO2)C(=O)OC [Example A42, (2R,3R)-methyl 2-(benzo[d][1,3]dioxole-5-carboxamido)-3-methylpentanoate] | 350 nM
CCCCC(NC(=O)c1ccc2c(c1)OCO2)C(=O)OC (centres unmarked) [Example A43, 2-[(Benzo[1,3]dioxole-5-carbonyl)-amino]-hexanoic acid methyl ester] | 490 nM
COC(=O)[C@@H](CC(C)C)NC(=O)c1ccc2c(c1)CCO2 [Example A46, (R)-methyl 2-(2,3-dihydrobenzofuran-5-carboxamido)-4-methylpentanoate] | 1320 nM
O=C(N[C@H]1CCCc2ccccc21)c1ccc2c(c1)OCO2 [Example A47, (S)-N-(1,2,3,4-tetrahydronaphthalen-1-yl)benzo[d][1,3]dioxole-5-carboxamide] | 1330 nM
CC(CCc1ccccc1)NC(=O)c1ccc2c(c1)OCO2 (centres unmarked) [Example A48] | 1510 nM
CCCC(NC(=O)c1ccc2c(c1)OCO2)C(=O)OC (centres unmarked) [Example A49, 2-[(Benzo[1,3]dioxole-5-carbonyl)-amino]-pentanoic acid methyl ester] | 1540 nM
CCCC(CCC)C(=O)Nc1ccc2c(c1)OCO2 [Example A50, N-(benzo[d][1,3]dioxol-5-yl)-2-propylpentanamide] | 1570 nM
CCCOC(=O)[C@@H](CC(C)C)NC(=O)c1ccc2c(c1)OCO2 [Example A51, (R)-propyl 2-(benzo[d][1,3]dioxole-5-carboxamido)-4-methylpentanoate] | 1580 nM
CCCC(CCC)NC(=O)c1ccc2c(c1)CCO2 [Example A52, N-(heptan-4-yl)-2,3-dihydrobenzofuran-5-carboxamide] | 1650 nM
CCCC(CC)NC(=O)c1ccc2c(c1)OCO2 (centres unmarked) [Example A53, N-(hexan-3-yl)benzo[d][1,3]dioxole-5-carboxamide] | 1830 nM
CCCC(CC)NC(=O)c1ccc(SC)c(C)c1 (centres unmarked) [Example A54, N-(hexan-3-yl)-3-methyl-4-(methylthio)benzamide] | 120 nM
CCCCC(NC(=O)c1ccc(OC)c(Cl)c1)C(=O)OC (centres unmarked) [Example A55, methyl 2-(3-chloro-4-methoxybenzamido)hexanoate] | 120 nM
CCCC(CC)NC(=O)c1ccc(C)c(C)c1 (centres unmarked) [Example A56, N-(hexan-3-yl)-3,4-imethylbenzamide] | 140 nM
C=Cc1ccc(C(=O)N[C@H](CC(C)C)C(=O)OC)cc1 [Example A57, (R)-methyl 4-methyl-2-(4-vinylbenzamido)pentanoate] | 180 nM
CCC(NC(=O)c1ccc(OC)c(C)c1)C(C)C (centres unmarked) [Example A58, 4-methoxy-3-methyl-N-(2-methylpentan-3-yl)benzamide] | 200 nM
CCCC(NC(=O)c1ccc(OC)c(C)c1)C(C)C (centres unmarked) [Example A59, 4-methoxy-3-methyl-N-(2-methylhexan-3-yl)benzamide] | 200 nM
CCSc1ccc(C(=O)N[C@H](CC(C)C)C(=O)OC)cc1 [Example A60, (R)-methyl 2-(4-(ethylthio)benzamido)-4-methylpentanoate] | 200 nM
CCCC(CCC)NC(=O)c1ccc(OC)c(C)c1 [Example A61, N-(heptan-4-yl)-4-methoxy-3-methylbenzamide] | 220 nM
COC(=O)[C@H](NC(=O)c1ccc(C)c(C)c1)C(C)C [Example A62, (R)-methyl 2-(3,4-dimethylbenzamido)-3-methylbutanoate] | 250 nM

Source: patent US20060045953A1 (priority 2004, published 2006)
